Experiments:
Test in all cases: differential drug sensitivity score (dDSS) relative to sarcoma reference cohort mean DSS (DSS units (0-100 scale difference)); higher = more selective sensitivity than reference sarcomas
Details in all cases: exposure time: 72 h; concentration range: 10-10000 nM
CDS-ZH003 = tested on: CDS-ZH003 (patient-derived CIC-DUX4 sarcoma tumoroid)
Experimental: (§1)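 Drug response profiling of patient-derived Ewing sarcoma and CIC::DUX4 sarcoma tumoroid models (or cells tested directly after isolation from the tumor, 'direct'). The DSS is the normalised AUC (0-100); dDSS is the sample DSS minus the mean DSS of a 34-sarcoma reference cohort profiled in the same lab.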

ES-ZH016 direct = tested on: ES-ZH016 direct (Ewing sarcoma cells right after isolation)
Experimental: as §1

ES-ZH002 = tested on: ES-ZH002 (patient-derived Ewing sarcoma tumoroid)
Experimental: as §1

CDS-ZH001 = tested on: CDS-ZH001 (patient-derived CIC-DUX4 sarcoma tumoroid)
Experimental: as §1

ES-ZH004 = tested on: ES-ZH004 (patient-derived Ewing sarcoma tumoroid)
Experimental: as §1

ES-ZH016 = tested on: ES-ZH016 (patient-derived Ewing sarcoma tumoroid)
Experimental: as §1

ES-ZH008 = tested on: ES-ZH008 (patient-derived Ewing sarcoma tumoroid)
Experimental: as §1

ES-ZH001 = tested on: ES-ZH001 (patient-derived Ewing sarcoma tumoroid)
Experimental: as §1

ES-ZH009 = tested on: ES-ZH009 (patient-derived Ewing sarcoma tumoroid)
Experimental: as §1

ES-ZH007 = tested on: ES-ZH007 (patient-derived Ewing sarcoma tumoroid)
Experimental: as §1

CDS-ZH001-2 = tested on: CDS-ZH001-2 (patient-derived CIC-DUX4 sarcoma tumoroid)
Experimental: as §1

CDS-ZH002 direct = tested on: CDS-ZH002 direct (CIC-DUX4 sarcoma cells right after isolation)
Experimental: as §1

CDS-ZH002 = tested on: CDS-ZH002 (patient-derived CIC-DUX4 sarcoma tumoroid)
Experimental: as §1

SMILES	differential drug sensitivity score (CDS-ZH003)	differential drug sensitivity score (ES-ZH016 direct)	differential drug sensitivity score (ES-ZH002)	differential drug sensitivity score (CDS-ZH001)	differential drug sensitivity score (ES-ZH004)	differential drug sensitivity score (ES-ZH016)	differential drug sensitivity score (ES-ZH008)	differential drug sensitivity score (ES-ZH001)	differential drug sensitivity score (ES-ZH009)	differential drug sensitivity score (ES-ZH007)	differential drug sensitivity score (CDS-ZH001-2)	differential drug sensitivity score (CDS-ZH002 direct)	differential drug sensitivity score (CDS-ZH002)
Cc1ccc2nc(NCCN)c3ncc(C)n3c2c1	-1.9	0.5	3.8	3	-2.3	3.7	-1.3	1.4	1.8	1.4	4.2	2.2	1
Nc1cccc2c1CN(C1CCC(=O)NC1=O)C2=O (centres undefined) [Lenalidomide]	-1.2	-1.2	1.8	-1.2	7.7	-1.2	7.4	0.4	-1.2	-1.2	-1.2	-1.2	-1.2
CN1CCN(c2ccc3nc(-c4c(N)c5c(F)cccc5[nH]c4=O)[nH]c3c2)CC1 [Dovitinib]	-4	7.6	6.3	-2.9	-1.9	-3.2	1.7	0.4	1.5	-3.8	1.1	-1.6	-4
O=C(NOC[C@H](O)CO)c1ccc(F)c(F)c1Nc1ccc(I)cc1F [Mirdametinib]	-3	-3	-3	-3	-3	-3	-1.9	-3	-3	-3	-3	-2.9	-3
CCN1CCN(Cc2ccc(-c3cc4c(N[C@H](C)c5ccccc5)ncnc4[nH]3)cc2)CC1 [AEE788]	5.8	-6.1	0.3	-0.7	-1.1	-4.1	-0.1	3.6	1.6	-4	-0.2	-1.2	-3
Cc1c2oc3c(C)ccc(C(=O)N[C@@H]4C(=O)N[C@H](C(C)C)C(=O)N5CCC[C@H]5C(=O)N(C)CC(=O)N(C)[C@@H](C(C)C)C(=O)O[C@@H]4C)c3nc-2c(C(=O)N[C@@H]2C(=O)N[C@H](C(C)C)C(=O)N3CCC[C@H]3C(=O)N(C)CC(=O)N(C)[C@@H](C(C)C)C(=O)O[C@@H]2C)c(N)c1=O [Dactinomycin]	12.7	9.9	11.1	12.1	7.5	11.8	12.5	9.7	12.8	8.7	11.9	11.9	11.4
C=CC(=O)Nc1cccc(Nc2nc(Nc3ccc(OCCOC)cc3)ncc2F)c1 [Spebrutinib]	-2.8	4.7	8.3	-2.5	3.7	-1.4	4.7	1.8	-2	-1.6	-3.1	-3.5	-2.9
Cn1cc(-c2cnn3c(N)c(Br)c([C@@H]4CCCNC4)nc23)cn1 [MK-8776]	-6.8	6.3	8.9	4.4	-2.9	-1.8	8.5	4.7	6.8	1.8	7.1	1.1	-1.5
O=c1ncn2nc(Sc3ccc(F)cc3F)ccc2c1-c1c(Cl)cccc1Cl [Neflamapimod]	-5.6	11.9	5.8	-2.7	0.5	2.9	7.4	3.5	5.9	0.5	5	1	-1.2
N#CCNC(=O)c1ccc(-c2ccnc(Nc3ccc(N4CCOCC4)cc3)n2)cc1 [Momelotinib]	-1.2	-0.5	3.7	-1.2	-1.2	2.6	-0.8	4	0.5	-1.2	-1.2	-1.2	-1.2
COc1cccc2c1C(=O)c1c(O)c3c(c(O)c1C2=O)C[C@@](O)(C(=O)CO)C[C@@H]3O[C@H]1C[C@H](N)[C@H](O)[C@H](C)O1 [Doxorubicin]	5	11	20.9	3.1	-3.3	12.8	-0.7	6.8	15.7	-10.2	10.6	3.1	4.7
CC#CC(=O)N1CCC[C@H]1c1nc(-c2ccc(C(=O)Nc3ccccn3)cc2)c2c(N)nccn12 [Acalabrutinib]	1.4	2.4	9.7	-3.5	11.2	-2.1	17.5	5.7	-3.5	-3.5	-2.5	-3.2	-2.9
CN1CC[C@@H](NC(=O)Nc2ccc(C#N)cc2)C[C@@H]1c1nc2ccccc2[nH]1 [Glasdegib]	2.5	-0.8	1.3	-0.8	-0.8	-0.8	-0.8	-0.8	-0.8	-0.8	-0.8	-0.8	-0.8
CC[C@H](NC(=O)[C@H](C)NC)C(=O)N1C[C@@H](O)C[C@H]1Cc1c(-c2[nH]c3cc(F)ccc3c2C[C@@H]2C[C@H](O)CN2C(=O)[C@H](CC)NC(=O)[C@H](C)NC)[nH]c2cc(F)ccc12 [Birinapant]	13	4.6	-0.4	21.9	-2.3	-1.3	-0.3	-0.8	5.7	-0.4	16.6	4.6	-1.8
CCN1CCN(c2ccc(Nc3cc(N(C)C(=O)Nc4c(Cl)c(OC)cc(OC)c4Cl)ncn3)cc2)CC1 [Infigratinib]	-1.3	1.6	2	-1.9	-3.9	-4	-6.1	-4	-0.1	-3.2	-1.1	2.3	-6.1
CC[C@]1(O)C[C@H]2CN(CCc3c([nH]c4ccccc34)[C@@](C(=O)OC)(c3cc4c(cc3OC)N(C=O)[C@H]3[C@@](O)(C(=O)OC)[C@H](OC(C)=O)[C@]5(CC)C=CCN6CC[C@]43[C@@H]65)C2)C1 [Vincristine]	-10.2	10	24	9.3	13.2	18.3	16.9	24.2	26	16.1	-4.8	13.4	10.8
CC(C)(O)CNc1nc(Nc2ccnc(C(F)(F)F)c2)nc(-c2cccc(C(F)(F)F)n2)n1 [Enasidenib]	-1.3	-1.3	-1.3	-1.3	-0.7	-1.3	-1.3	-1.3	-1.3	-1	-1.3	-1.3	-1.3
COC(=O)C[C@](O)(CCCC(C)(C)O)C(=O)O[C@@H]1C(OC)=C[C@]23CCCN2CCc2cc4c(cc2[C@H]13)OCO4 [Homoharringtonine]	1	2.7	9.7	10.1	1.9	3.1	13.3	3.5	6	10	10.7	10	6.3
O=C(Nc1cnn2ccc(N3CCC[C@@H]3c3cc(F)ccc3F)nc12)N1CC[C@H](O)C1 [Larotrectinib]	8.8	-0.9	-0.9	1.2	-0.8	-0.9	-0.9	-0.9	-0.9	-0.9	-0.9	-0.9	-0.9
CN1CCC(CNc2ccc3ncc(-c4cccc(OC(F)(F)F)c4)n3n2)CC1 [SGI1776]	4.4	-0.3	6.6	3.5	1.6	0.8	2.1	0.3	0.3	0.5	3.7	-0.4	0.1
CNC(=O)c1ccccc1Sc1ccc2c(/C=C/c3ccccn3)n[nH]c2c1 [Axitinib]	6	3.8	2.2	-0.9	-0.9	-0.9	-0.9	-0.9	0.4	-0.9	-0.8	-0.9	-0.9
COc1cc2c(Nc3ccc(NC(=O)c4ccccc4)cc3)ncnc2cc1OCCCN1CCOCC1	-2.2	6.7	8.1	0.8	2.2	1.6	-2	4.9	7.1	0.4	2.9	0.1	-2.2
Cn1c(=O)n(-c2ccc(C(C)(C)C#N)cc2)c2c3cc(-c4cnc5ccccc5c4)ccc3ncc21 [Dactolisib]	3.4	-7.5	5	3.3	1	-2.5	-0.5	3	13.6	1.5	1.3	1.1	-0.4
Nc1nc(F)nc2c1ncn2[C@@H]1O[C@H](CO)[C@@H](O)[C@@H]1O [Fludarabine]	-2.8	11.5	8.7	-3.2	5.3	1.4	-1.1	4.6	-3.2	3.9	3.9	2.5	-0.8
C[C@]1(O)C[C@@H](c2nc(-c3ccc4ccc(-c5ccccc5)nc4c3)c3c(N)nccn32)C1 [Linsitinib]	5.7	3.2	15.2	3.8	3.2	6.8	4.9	0.8	3.7	3	5.7	-5.9	-5
CCN(c1cc(C#CCN2CCOCC2)cc(C(=O)NCc2c(C)cc(C)[nH]c2=O)c1C)[C@H]1CC[C@H](N(C)CCOC)CC1	-1.4	-1.4	2.8	-1.4	-1.4	-1.4	0.2	3.1	-1.4	-1.4	-0.9	-1.2	-0.7
Cc1ccc(Nc2nccc(N(C)c3ccc4c(C)n(C)nc4c3)n2)cc1S(N)(=O)=O [Pazopanib]	0.4	17.4	-2.9	-2.9	-2.9	-0.7	-2.9	-2.9	-2.9	-2.9	14.6	-1.4	0.6
CC(C)C[C@H](NC(=O)[C@H](CCc1ccccc1)NC(=O)CN1CCOCC1)C(=O)N[C@@H](Cc1ccccc1)C(=O)N[C@@H](CC(C)C)C(=O)[C@@]1(C)CO1 [Carfilzomib]	4.4	6.8	9.9	5.3	10.9	4.3	4	8.2	10.8	12.2	6	5.5	0.7
